These results are taken from patent US5246989A, “Photochromic compound, composition and use thereof” (priority 1990, dated 1993).

The nature of this series: Photochromic characteristics of cast polymethyl methacrylate film (coloration under mercury lamp, fading). The format is physicochemical. To be noted: PMMA film, 1.0×10^-4 mol/g, 0.1 mm, 35° C.; for t1/2 (half-value period of absorbance after irradiation): after 60 seconds' irradiation; for λ max (maximum absorption wavelength of the colored film) / ε (60 seconds)-ε (0 second): mercury lamp 60 seconds; for ε (60 seconds)-ε (0 second): absorbance at λmax.

Method: The compound synthesized in Example 1, which was represented by the following formula: [drawing 286] was dissolved and dispersed in polymethyl methacrylate with the aid of benzene, and a cast film was prepared on a slide glass sheet (11.2 cm×3.7 cm) so that the concentration of the compound in the film was 1.0×10^-4 mol/g and the thickness of the film was 0.1 mm. The photochromic film was irradiated with rays of a mercury lamp (SHL-100 supplied by Toshiba) located 10 cm apart from the film at 35° C.+1° C. for 60 seconds to effect coloration in the film, and the photochromic characteristics were examined with respect to items described below.
Maximum absorption wavelength (λmax):
The maximum absorption wavelength λmax of the colored film was determined by using a spectrophotometer (220 A supplied by Hitachi).
After 60 seconds' irradiation under the above-mentioned conditions, the absorbance at the maximum absorption wavelength was measured.
The absorbance at the maximum absorption wavelength of the unirradiated film was measured. Half-value period t^1/2 :
After 60 seconds' irradiation, the time required for reduction of the absorbance of the film to 1/2 of [ε(60 seconds)-ε(0 second)] was measured.

For `COC(=O)c1cc2c(c3cc[nH]c13)OC1(C=N2)N(C)c2[nH]ccc2C12CCCCC2` (centres unmarked) [Compound 20], the t1/2 (half-value period of absorbance after irradiation) stood at 17 s, the “λ max (maximum absorption wavelength of the colored film)” value (shortened to “λ max”) turned out to be 603 and the “ε (60 seconds)-ε (0 second)” value turned out to be 1.4.
Consider `CN1c2ccc([N+](=O)[O-])cc2C2(CCCCC2)C12C=Nc1ccc3ccccc3c1O2` (centres unmarked) [Compound 21], for which the t1/2 (half-value period of absorbance after irradiation) was found to be 18 s, the “λ max” value is reported as 610 and the “ε (60 seconds)-ε (0 second)” value turned out to be 1.2.
For the compound `CCCCN1c2cc(CC)ccc2C2(CC3CCC2C3)C12C=Nc1c(N)cc3occc3c1O2` (centres unmarked) [Compound 23], the t1/2 (half-value period of absorbance after irradiation) turned out to be 19 s, the “λ max” value was determined as 605 and the “ε (60 seconds)-ε (0 second)” value stood at 1.2.
For `COC(=O)CN1c2cc(Cl)ccc2C2(C3CC4CC(C3)CC2C4)C12C=Nc1ccc3cc4ccc(Br)cc4cc3c1O2` (centres unmarked) [Compound 24] the same measures were 18 s, 609 and 1.2.
Taken in the same sequence, the figures for `CN1c2ccccc2C2(CCCCC2)C12C=Nc1cc(Cc3ccccc3)c3ccccc3c1O2` (centres unmarked) [Compound 25] were 18 s, 611 and 1.4.
For the compound `CN1c2ccccc2C2(CCCCC2)C12C=Nc1ccc3cnccc3c1O2` (centres unmarked) [Compound 26], the t1/2 (half-value period of absorbance after irradiation) stood at 17 s, the “λ max” value is 619 and the “ε (60 seconds)-ε (0 second)” value is 1.8.
For the compound `CN1c2c(F)cc(F)cc2C2(CCCCC2)C12C=Nc1ccc3cnccc3c1O2` (centres unmarked) [Compound 27], the t1/2 (half-value period of absorbance after irradiation) is 15 s, the “λ max” value turned out to be 613 and the “ε (60 seconds)-ε (0 second)” value came out at 1.7.
As to `Cc1cc2ccncc2c2c1N=CC1(O2)N(C(C)C)c2ccc(Cl)cc2C12CCCC2` (centres unmarked) [Compound 28], the t1/2 (half-value period of absorbance after irradiation) came out at 14 s, the “λ max” value turned out to be 595 and the “ε (60 seconds)-ε (0 second)” value is 1.7.
Taken in the same sequence, the figures for `Cc1cc2c(c3ccnc(C)c13)OC1(C=N2)N(C(C)C)c2cc(Br)ccc2C12CCCCCC2` (centres unmarked) [Compound 29] were 16 s, 602 and 1.6.
Taken in the same sequence, the figures for `CCC1(CC)c2cc(C(F)(F)F)ccc2N(Cc2ccccc2)C12C=Nc1cc(Cc3ccccc3)c3c(C)cncc3c1O2` (centres unmarked) [Compound 30] were 18 s, 589 and 1.6.
Turning to `CCC1(C)c2cc(OC)ccc2N(Cc2ccccc2)C12C=Nc1cc(-c3ccccc3)c3c(OC)nccc3c1O2` (centres unmarked) [Compound 31], the t1/2 (half-value period of absorbance after irradiation) was 17 s, the “λ max” value is recorded as 619 and the “ε (60 seconds)-ε (0 second)” value was 1.7.
In the case of `CCC1(CC)c2ccc(N(C)C)cc2N(CCc2ccccc2)C12C=Nc1c(Cl)cc3cc(OC)ncc3c1O2` (centres unmarked) [Compound 32], the t1/2 (half-value period of absorbance after irradiation) was determined as 19 s, the “λ max” value amounted to 590 and the “ε (60 seconds)-ε (0 second)” value stood at 1.7.
For the compound `CN(C)c1cc2c(c3cc4cc[nH]c4cc13)OC1(C=N2)N(C)c2ncc(Cc3ccccc3)cc2C1(C)C` (centres unmarked) [Compound 47], the t1/2 (half-value period of absorbance after irradiation) is 17 s, the “λ max” value came out at 601 and the “ε (60 seconds)-ε (0 second)” value was 1.4.
Taken in the same sequence, the figures for `CN1c2occ(C#N)c2C(C)(C)C12C=Nc1cc(Cc3ccccc3)c3ncc(Br)cc3c1O2` (centres unmarked) [Compound 48] were 18 s, 610 and 1.4.
As to `CN1c2cc(N3CCCC3)ccc2C(C)(C)C12C=Nc1c(C(F)(F)F)cc3ncccc3c1O2` (centres unmarked) [Compound 49], the t1/2 (half-value period of absorbance after irradiation) was 19 s, the “λ max” value is 600 and the “ε (60 seconds)-ε (0 second)” value worked out at 1.5.
With `CC1(C)c2cc3cc(-c4ccsc4)oc3cc2N(CCC#N)C12C=Nc1c(N)cc3ncccc3c1O2` (centres unmarked) [Compound 50], the “λ max” value was 605 and the “ε (60 seconds)-ε (0 second)” value is recorded as 1.5.
Consider `COC(=O)c1cc2ncccc2c2c1N=CC1(O2)N(C)c2c(cc(C(F)(F)F)c(C(F)(F)F)c2C(F)(F)F)C1(C)C` (centres unmarked) [Compound 51], for which the t1/2 (half-value period of absorbance after irradiation) is 18 s, the “λ max” value is on record as 609 and the “ε (60 seconds)-ε (0 second)” value is 1.4.
For `COC(=O)c1ccc2c(c1)C(C)(C)C1(C=Nc3ccc4ncccc4c3O1)N2C` (centres unmarked) [Compound 52] the same measures were 18 s, 611 and 1.5.
Taken in the same sequence, the figures for `CN1c2ccccc2C(C)(C)C12C=Nc1ccc3cnccc3c1O2` (centres unmarked) [Compound 53] were 16 s, 615 and 1.7.
Taken in the same sequence, the figures for `CN1c2c(F)cc(F)cc2C(C)(C)C12C=Nc1ccc3cnccc3c1O2` (centres unmarked) [Compound 54] were 14 s, 609 and 1.5.
Consider `Cc1cc2ccncc2c2c1N=CC1(O2)N(C(C)C)c2ccc(Cl)cc2C1(C)C` (centres unmarked) [Compound 55], for which the t1/2 (half-value period of absorbance after irradiation) was 13 s, the “λ max” value was 590 and the “ε (60 seconds)-ε (0 second)” value is listed as 1.6.
